Results reported in patent publication US20130040882A1, “USE OF FIBROBLAST GROWTH FACTOR FRAGMENTS” (NOVARTIS AG, priority 2003, published 2013).
“And” between values parts separate entries of the source, which are not always exact repeats. Equal values may be shown once.

Tests used:
[1] = Salmon calcitonin/PTS893 monkey study: urinalysis; conditions: urine
[2] = Salmon calcitonin/PTS893 monkey study: haematology; assay type: in vivo, cynomolgus monkeys (Macaca fascicularis);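 further: haematology parameters were measured in blood collected from a peripheral vein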
Description: Animals were fasted overnight before blood collection but had free access to water. Blood samples were taken from a peripheral vein. Standard haematology and clinical chemistry analysis were performed once during pretest and at the end of the treatment period. Blood samples were collected from each animal at the same intervals as described for the clinical chemistry investigations. The serum samples were deep-frozen (approximately −80° C.) until analyses for hormone determination.

[3] = Salmon calcitonin/PTS893 monkey study: histopathology incl. osteonectin, osteopontin and osteocalcin staining of bone; assay type: in vivo, cynomolgus monkeys (Macaca fascicularis); conditions: females
Description: Animals were killed by deep anaesthesia induced by intravenous injection of Pentothal®, followed by exsanguinations. All relevant tissues were sampled for histopathology and gene expression profiling. The following tissue samples were processed for analysis: liver, kidney, pituitary, muscle, bone, duodenum, spleen and trachea. Samples for histopathology were fixed in phosphate-buffered 10% formalin. Bone demineralization was performed with 10% formic acid. Tissue samples were embedded in Paraplast® and sectioned at 4 microns, for staining with haematoxylin and eosin. […] All selected tissues for gene expression profiling were examined histopathologically.
Bone sections were stained for osteonectin, osteopontin and osteocalcin and were evaluated histopathologically. Histomorphometry of the bone tissue was performed regarding parameters for bone resorption and synthesis (osteoid formation).

[4] = Salmon calcitonin/PTS893 monkey study: in vivo examinations (mortality, food consumption, clinical observations, body weight); parameters: species or system cynomolgus monkeys (Macaca fascicularis)
Description: Solvent was used as vehicle for the control group.
The animals used in this analysis were cynomolgus monkeys (Macaca fascicularis), supplied by Centre de Recherches Primatologiques, Port Louis, Mauritius. Two animals were used per group and sex. […] Animals were examined daily for mortality, food consumption and clinical observations. Body weight was recorded once per week.
In vivo examinations. No significant histopathological changes were observed.

[5] = female monkeys, day 13 of dosing
[6] = female monkeys, day −8 relative to start of dosing
[7] = male monkeys, day −6 relative to start of dosing

Compound: CC(C)C[C@H](NC(=O)[C@H](CCCCN)NC(=O)CNC(=O)[C@H](CC(C)C)NC(=O)[C@@H](NC(=O)[C@@H]1CSSC[C@H](N)C(=O)N[C@@H](CO)C(=O)N[C@@H](CC(N)=O)C(=O)N[C@@H](CC(C)C)C(=O)N[C@@H](CO)C(=O)N[C@@H]([C@@H](C)O)C(=O)N1)C(C)C)C(=O)N[C@@H](CO)C(=O)N[C@@H](CCC(N)=O)C(=O)N[C@@H](CCC(=O)O)C(=O)N[C@@H](CC(C)C)C(=O)N[C@@H](Cc1c[nH]cn1)C(=O)N[C@@H](CCCCN)C(=O)N[C@@H](CC(C)C)C(=O)N[C@@H](CCC(N)=O)C(=O)N[C@H](C(=O)N[C@@H](Cc1ccc(O)cc1)C(=O)N1CCC[C@H]1C(=O)N[C@@H](CCCNC(=N)N)C(=O)N[C@H](C(=O)N[C@@H](CC(N)=O)C(=O)N[C@H](C(=O)NCC(=O)N[C@@H](CO)C(=O)NCC(=O)N[C@H](C(=O)N1CCC[C@H]1C(N)=O)[C@@H](C)O)[C@@H](C)O)[C@@H](C)O)[C@@H](C)O [salmon calcitonin]
- CREAT [1, 5]: 4800 µmol/L and 4200 µmol/L
- Ca2+ [1, 5]: 17.55 mmol/L and 12.70 mmol/L
- Cl− [1, 5]: 63 mmol/L and 65 mmol/L
- I.PHOS [1, 5]: 5.1 mmol/L and 5.8 mmol/L
- K+ [1, 5]: 53 mmol/L and 57 mmol/L
- Mg2+ [1, 5]: 5.40 mmol/L and 4.85 mmol/L
- NAG [1, 5]: 2.8 IU/l and 2.7 IU/l
- Na+ [1, 5]: 40 mmol/L and 32 mmol/L
- VOLUME [1, 5]: 67 mL and 49 mL
- CREAT ([1]; female monkeys, day −7 relative to start of dosing): 6920 µmol/L and 13380 µmol/L
- CREAT [1, 6]: 10780 µmol/L and 11260 µmol/L
- Ca2+ [1, 6]: 3.00 mmol/L and 3.50 mmol/L
- K+ [1, 6]: 104 mmol/L and 172 mmol/L
- Mg2+ [1, 6]: 3.35 mmol/L and 3.80 mmol/L
- Na+ [1, 6]: 98 mmol/L and 156 mmol/L
- CREAT ([1]; male monkeys, day 13 of dosing): 4620 µmol/L and 4400 µmol/L
- Ca2+ ([1]; male monkeys, day 13 of dosing): 18.25 mmol/L and 23.40 mmol/L
- Cl− ([1]; male monkeys, day 13 of dosing): 55 mmol/L and 68 mmol/L
- I.PHOS ([1]; male monkeys, day 13 of dosing): 2.50 mmol/L and 3.00 mmol/L
- K+ ([1]; male monkeys, day 13 of dosing): 78 mmol/L and 76 mmol/L
- Mg2+ ([1]; male monkeys, day 13 of dosing): 7.05 mmol/L and 9.80 mmol/L
- Na+ ([1]; male monkeys, day 13 of dosing): 14 mmol/L and 15 mmol/L
- VOLUME ([1]; male monkeys, day 13 of dosing): 68 mL and 54 mL
- I.PHOS [1, 7]: 4.35 mmol/L and 5.33 mmol/L
- LDH [1, 7]: 9.0 IU/L and 13.0 IU/L
- NAG [1, 7]: 2.7 IU/l and 4.2 IU/l
- VOLUME [1, 7]: 62 mL and 37 mL
- Haematology L ([2]; females, d7): 4.61 pg/ml and 6.21 pg/ml
- Haematology M ([2]; females, d7): 0.63 nmol/l and 0.82 nmol/l
- Haematology MCH ([2]; females, d7): 18.6 ng/ml and 19.4 ng/ml
- Haematology MCHC ([2]; females, d7): 29.0 pg/ml and 28.7 pg/ml
- Haematology PCV ([2]; females, d7): 0.40 mU/l and 0.44 mU/l
- Haematology PLAT ([2]; females, d7): 594 nmol/l and 356 nmol/l
- Haematology RBC ([2]; females, d7): 6.2 nmol/l and 6.6 nmol/l
- Haematology M ([2]; females, d13): 0.69 nmol/l and 0.39 nmol/l
- Haematology MCH ([2]; females, d13): 19.5 ng/ml
- Haematology MCHC ([2]; females, d13): 30.3 pg/ml and 29.9 pg/ml
- Haematology N ([2]; females, d13): 5.41 nmol/l and 6.16 nmol/l
- Haematology PCV ([2]; females, d13): 0.33 mU/l and 0.37 mU/l
- Haematology PLAT ([2]; females, d13): 451 nmol/l and 229 nmol/l
- Haematology RBC ([2]; females, d13): 5.2 nmol/l and 5.7 nmol/l
- Haematology E ([2]; females, d−8 (before dosing)): 0.03 mUI/l
- Haematology L ([2]; females, d−8 (before dosing)): 3.26 pg/ml and 4.79 pg/ml
- Haematology M ([2]; females, d−8 (before dosing)): 0.25 nmol/l and 0.30 nmol/l
- Haematology MCH ([2]; females, d−8 (before dosing)): 19.1 ng/ml and 19.8 ng/ml
- Haematology MCHC ([2]; females, d−8 (before dosing)): 31.2 pg/ml and 30.6 pg/ml
- Haematology N ([2]; females, d−8 (before dosing)): 3.45 nmol/l and 3.13 nmol/l
- Haematology PCV ([2]; females, d−8 (before dosing)): 0.40 mU/l and 0.45 mU/l
- Haematology PLAT ([2]; females, d−8 (before dosing)): 549 nmol/l and 304 nmol/l
- Haematology RBC ([2]; females, d−8 (before dosing)): 6.5 nmol/l and 7.0 nmol/l
- Haematology B ([2]; males, d7): 0.04 G/l
- Haematology E ([2]; males, d7): 0.10 G/l and 0.09 G/l
- Haematology HB ([2]; males, d7): 11.7 g/dl and 11.5 g/dl
- Haematology L ([2]; males, d7): 6.79 G/l and 5.57 G/l
- Haematology M ([2]; males, d7): 0.73 G/l and 0.45 G/l
- Haematology MCH ([2]; males, d7): 19.9 pg and 19.2 pg
- Haematology MCHC ([2]; males, d7): 30.3 g/dl and 31.3 g/dl
- Haematology MCV ([2]; males, d7): 66 fl and 62 fl
- Haematology N ([2]; males, d7): 4.11 G/l and 3.31 G/l
- Haematology PCV ([2]; males, d7): 0.39 l/l and 0.37 l/l
- Haematology PLAT ([2]; males, d7): 396 G/l and 330 G/l
- Haematology RBC ([2]; males, d7): 5.9 T/l and 6.0 T/l
- Haematology WBC ([2]; males, d7): 11.8 G/l and 9.5 G/l
- Haematology B ([2]; males, d13): 0.03 G/l
- Haematology HB ([2]; males, d13): 11.2 g/dl and 10.3 g/dl
- Haematology L ([2]; males, d13): 5.38 G/l and 4.92 G/l
- Haematology M ([2]; males, d13): 0.57 G/l and 0.76 G/l
- Haematology MCH ([2]; males, d13): 20.2 pg and 19.2 pg
- Haematology MCHC ([2]; males, d13): 29.0 g/dl and 28.7 g/dl
- Haematology MCV ([2]; males, d13): 70 fl and 67 fl
- Haematology N ([2]; males, d13): 1.90 G/l and 3.04 G/l
- Haematology PCV ([2]; males, d13): 0.39 l/l and 0.36 l/l
- Haematology PLAT ([2]; males, d13): 302 G/l and 389 G/l
- Haematology RBC ([2]; males, d13): 5.6 T/l and 5.4 T/l
- Haematology WBC ([2]; males, d13): 8.0 G/l and 8.8 G/l
- Haematology HB ([2]; males, d−6 (before dosing)): 12.6 g/dl and 13.6 g/dl
- Haematology L ([2]; males, d−6 (before dosing)): 4.00 G/l and 6.55 G/l
- Haematology MCH ([2]; males, d−6 (before dosing)): 20.2 pg and 19.7 pg
- Haematology MCHC ([2]; males, d−6 (before dosing)): 31.4 g/dl and 32.0 g/dl
- Haematology MCV ([2]; males, d−6 (before dosing)): 64 fl and 62 fl
- Haematology N ([2]; males, d−6 (before dosing)): 3.36 G/l and 3.93 G/l
- Haematology PCV ([2]; males, d−6 (before dosing)): 0.40 l/l and 0.43 l/l
- Haematology PLAT ([2]; males, d−6 (before dosing)): 351 G/l and 247 G/l
- Haematology RBC ([2]; males, d−6 (before dosing)): 6.3 T/l and 6.9 T/l
- Haematology WBC ([2]; males, d−6 (before dosing)): 7.7 G/l and 11.5 G/l
- Inflammatory and regenerative changes in the kidneys [3]: slightly higher incidence
- Food consumption ([4]; 50 μg/animal/day sc, two weeks): decrease
- Signs of toxicity ([4]; 50 μg/animal/day sc, two weeks): no signs of toxicity
- Food Consumption, Avg., Both animals ([4]; males, average of both animals of the group): 72.9
- Food Consumption, Avg. ([4]; males, average per individual animal): 70.8 and 75.0
- Food Consumption, Day 1 ([4]; males, day 1 of SC dosing, individual animals): 75 and 50
- Food Consumption, Day 2 ([4]; males, day 2 of SC dosing, individual animals): 25
- Food Consumption, Day 3 ([4]; males, day 3 of SC dosing, individual animals): 50 and 100
- Food Consumption, Day 4 ([4]; males, day 4 of SC dosing, individual animals): 100 and 75
- Food Consumption, Day 5 ([4]; males, day 5 of SC dosing, individual animals): 100
- Food Consumption, Day 6 ([4]; males, day 6 of SC dosing, individual animals): 75
- Food Consumption, Day 7 ([4]; males, day 7 of SC dosing, individual animals): 100 and 75
- Food Consumption, Day 8 ([4]; males, day 8 of SC dosing, individual animals): 100 and 75
- Food Consumption, Day 9 ([4]; males, day 9 of SC dosing, individual animals): 100
- Food Consumption, Day 10 ([4]; males, day 10 of SC dosing, individual animals): 100
- Food Consumption, Day 11 ([4]; males, day 11 of SC dosing, individual animals): 75 and 100
- Food Consumption, Day 12 ([4]; males, day 12 of SC dosing, individual animals): 75
- Food Consumption, Day 13 ([4]; males, day 13 of SC dosing, individual animals): 25
- Food Consumption, Day 14 ([4]; males, day 14 of SC dosing, individual animals): 75
- Food Consumption, Day −1 ([4]; males, day −1 (before dosing), individual animals): 75
- Food Consumption, Day −2 ([4]; males, day −2 (before dosing), individual animals): 100
- Food Consumption, Day −3 ([4]; males, day −3 (before dosing), individual animals): 75
- Food Consumption, Day −4 ([4]; males, day −4 (before dosing), individual animals): 50 and 75
- Food Consumption, Day −5 ([4]; males, day −5 (before dosing), individual animals): 75
- Food Consumption, Day −6 ([4]; males, day −6 (before dosing), individual animals): 50
